Measurements reported in US12686668B2, “Leukotriene synthesis inhibitors” (Naegis Pharmaceuticals Inc., priority 2019, dated 2026).

Columns and labels:
AA-induced ear edema = test: Arachidonic acid (AA) induced mouse ear edema model; format: in vivo, CD-1 mice; details: 4 hrs and 1 hr before AA 2 mg/ear, mice; for % Inhibition AA-Induced ear edema (0.3 mg/ear): topical 0.3 mg/ear; for % Inhibition AA-Induced ear edema (1 mg/ear): topical 1 mg/ear
Description: One group serves as a control and receives 20 μL of vehicle applied to the pinna of each ear (10 μL to the inside and 10 μL to the outside of the pinna). One or more additional groups serve as test groups. The test compound was applied to the pinna of one ear of the mouse in a 20 μL volume (10 μL to the inside and 10 μL to the outside of the pinna). Test compound or control vehicle (acetone/1% DMSO) was applied topically to the right ear 4 and 1 hour before the application of 2 mg/ear AA as a stimulus to both the inner and outer surfaces of CD-1 mice. The left ears received vehicle (acetone/1% DMSO) alone. The animal was lightly anesthetized again using isofluorane to enable application of the stimulus. For the control group, arachidonic acid (2 mg/ear) was applied as the stimulus to the pinna of one ear only, in a total volume of 20 μL of acetone (10 μL applied to the inside and 10 μL to the outside of the pinna). The other ear received 20 μL of acetone. This served to determine the increase in ear weight due to arachidonic acid in the absence of test compounds. For the test groups, arachidonic acid (2 mg/ear) was applied as the stimulus to the pinna of each ear, in a total volume of 20 μL of acetone (10 μL applied to the inside and 10 μL to the outside of the pinna). The animal was allowed to recover after application of the stimulus in each case. After 60 minutes the animal was euthanized and a standard biopsy sample was taken from each ear using a 6 mm skin biopsy punch (Acuderm). Ear edema was determined by the increase in weight of the tissue due to accumulation of fluid as a result of plasma extravasation. The ears were weighed separately using a balance suitable to record 0.1 mg. For the control group, the difference in ear weights was determined by subtracting the weight of the unstimulated ear from the stimulated ear, and this was a measure of the increase in ear weight due to edema. The percentage increase in ear weight was determined by dividing the increase in stimulated ear weight by the unstimulated ear weight and multiplying by 100. For the test groups, the difference in ear weights was determined by subtracting the weight of the untreated ear from the weight of the ear treated with test compound. The percent inhibition of the increase in ear weight for ears treated with the test compound was estimated by first subtracting the mean ear weight of the untreated controls from each tissue to determine the increase in tissue weight due to application of the arachidonic acid. The percent inhibition=1−(test drug stimulated ear (mg)/control stimulated ear (mg))×100. In Table 5, the data from inhibition of AA-induced ear edema in mice by topical application of compounds is provided. Compounds (0.3 or 1 mg/ear) were applied topically to the ear 4 hrs and 1 hr prior to application of arachidonic acid (AA; 2 mg/ear).

[1] = target: T1, recombinant human leukotriene A4 hydrolase enzyme (Homo sapiens, UniProt P09960); test: Amino-peptidase assay, PGP; format: biochemical; details: concentration not given
T1 construct: purchased Cayman Chemical 10007817
T1 sequence (P09960 1-611): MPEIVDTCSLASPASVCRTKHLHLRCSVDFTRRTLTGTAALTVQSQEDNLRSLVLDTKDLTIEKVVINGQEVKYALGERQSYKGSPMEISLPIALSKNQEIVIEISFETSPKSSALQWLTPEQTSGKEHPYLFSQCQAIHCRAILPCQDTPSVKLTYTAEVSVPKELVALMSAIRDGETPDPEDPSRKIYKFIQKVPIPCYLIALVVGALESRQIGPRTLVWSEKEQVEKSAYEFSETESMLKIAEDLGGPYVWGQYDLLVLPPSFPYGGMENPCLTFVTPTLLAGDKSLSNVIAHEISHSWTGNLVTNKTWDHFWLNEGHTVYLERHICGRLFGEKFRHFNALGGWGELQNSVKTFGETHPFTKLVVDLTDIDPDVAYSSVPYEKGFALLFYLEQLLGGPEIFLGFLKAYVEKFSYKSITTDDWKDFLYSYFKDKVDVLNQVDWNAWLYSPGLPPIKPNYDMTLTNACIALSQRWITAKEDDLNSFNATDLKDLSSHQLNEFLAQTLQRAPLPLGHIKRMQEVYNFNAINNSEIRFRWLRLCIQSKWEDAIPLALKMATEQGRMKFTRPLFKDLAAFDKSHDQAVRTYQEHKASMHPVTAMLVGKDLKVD
Description: A series of compound concentrations were pre-incubated with 50 ng of recombinant human leukotriene A4 hydrolase enzyme (Cayman Chemical, 10007817) in 50 L assay buffer (50 mM Tris-HCl, 100 mM KCl). The reaction was stimulated by adding 50 L 1 mM proline-glycine-proline (Bachem, H-7284) and incubated for 30 minutes at 37° C. The reaction was stopped with the addition of 150 μL of glacial acetic acid. The amount of free proline released from the peptide was detected through a reaction with ninhydrin. 150 μL of 25 mg/mL ninhydrin (BDH, B10132) in 60:40 acetic acid/water was added to each sample, and boiled for 30 minutes at 100° C. and once samples had cooled to room temperature, 350 μL of toluene was added to extract the ninhydrin reaction product. The amount of free proline was determined by comparing the absorbance at 520 nm to the L-proline (Sigma Aldrich, 81709) reference standard. Inhibition of free proline production was calculated based on control samples.

Row | SMILES | % Inhibition AA-Induced ear edema (0.3 mg/ear) (AA-induced ear edema) | % Inhibition AA-Induced ear edema (1 mg/ear) (AA-induced ear edema) | % Inhibition aminopeptidase-PGP activity of LTA4H [1] [%]
1 | CC(O)(CCc1ccc(OCc2ccc3ccccc3n2)cc1)C(F)(F)F (centres unmarked) [Compound 183, 1,1,1-trifluoro-2-methyl-4-[4-(quinolin-2-ylmethoxy)phenyl]butan-2-ol] | 30-50% | >90% | >75
2 | CCC(O)(CCc1ccc(Oc2nc3c(SC)cccc3s2)c(OC)c1)C(F)(F)F (centres unmarked) [Compound 104, 1-{3-methoxy-4-[(4-methylsulfanyl-1,3-benzothiazol-2-yl)oxy]phenyl}-3-(trifluoromethyl)pentan-3-ol] | 30-50% | 50-70% | 
